# Measured values: patent US20240352072A1, “NOVEL COMPOSITIONS AND METHODS FOR TREATING CORONAVIRUS INFECTIONS” (priority 2021, published 2024)
# Read-outs that look alike come from different tables or passages of the source. Where no end group is shown, it is not given here. [ ]: non-standard residue; d: D form. The star is where a group is joined. Lys(Me2) = CN(C)CCCC[C@H](N)C(=O)O; Myristyl = CCCCCCCCCCCCCC*
# Assays:
# [1] = system: ACE2, LSD1; assay type: cell-based; settings: Caco-2 cells
# [2] = system: ACE2, SARS-CoV-2 nucleocapsid and Spike proteins; assay type: cell-based
# [3] = system: ACE2-importin complex; assay type: binding
# [4] = target: T1, ACE2unmod and IMPα1 (Homo sapiens, UniProt P52292); assay type: cell-based; design: dose or concentration left out as unconfirmed; settings: H1299 cells
# T1 construct: endogenous in cells; host or cells: H1299
# [5] = system: SARS-CoV-2; design: species or system golden Syrian Hamsters; settings: hamster, in vivo
# [6] = system: SARS-CoV-2; design: species or system golden Syrian Hamsters; settings: hamster, in vivo; remark: listed apart in the source
# [7] = system: SARS-CoV-2 Spike protein; design: species or system golden Syrian Hamsters; settings: hamster, in vivo
# [8] = system: SARS-Cov-2 induced lung pathology; design: species or system golden Syrian Hamsters; settings: hamster, in vivo
# [9] = system: perforin and CD3; assay type: in vivo, golden Syrian Hamsters; settings: hamster, IP or IV routes
# [10] = Hamster tolerance (animal safety) study; assay type: in vivo, golden Syrian Hamsters; settings: escalating IP doses
# Protocol: Female golden Syrian Hamsters (6-8 weeks) were obtained from Janiver Labs (Le Genest-Saint-Isle, France) and studies conducted by Oncodesign® Biotechnology (Dijon Cedex, France). For tolerance experiments, animals (3 per group) received escalating doses of P604 ACE2 peptide inhibitor or ACE2i peptide via intraperitoneal injection. Doses were escalated daily (day 1: 25 mg/kg, day 2: 50 mg/kg, day 3: 100 mg/kg) and animals monitored prior to culling on day 4. Animal viability, behaviour and rectal temperature were recorded every 2 hours over a 6 hour period post-administration and body weights were measured daily. For P604 ACE2 peptide inhibitor efficacy studies, animals (8 per group) were treated with vehicle (IP, daily day 0, 1 and 2) (Sodium chloride 0.9%, Osalia, Paris, France) or P604 ACE2 peptide inhibitor over a 2-day period via intravenous (IV, 15 mg/kg, day 0 once and day 1 twice, 8 hours apart) or intraperitoneal (IP, 100 mg/kg, daily Day 0, 1, 2) injection. For P604 ACE2 peptide inhibitor efficacy studies, animals were treated with vehicle or P604 ACE2 peptide inhibitor (30 mg/kg, IN, twice daily, Day 0, 1 8 hours apart).
# [11] = target: T2, LSD1 (Homo sapiens, UniProt O60341)
# [12] = target: T2, LSD1; assay: In vitro LSD1 activity assay (demethylation of ACE2 peptide at lysine 31); assay type: biochemical
# [13] = system: SARS-CoV-2; assay type: cell-based
# [14] = system: SARS-CoV-2; assay type: cell-based; remark: listed apart in the source
# [15] = target: ACE2 and SARS-CoV-2 Spike (Severe acute respiratory syndrome coronavirus 2, UniProt P0DTC2); assay type: cell-based
# [16] = target: T3, SARS-CoV-2 spike protein (Severe acute respiratory syndrome coronavirus 2, UniProt P0DTC2); assay type: cell-based
# T3 construct: spike protein 51 (Glu14-Ser680) containing a poly-histidine tag at the C-terminus; poly-histidine (C)
compound,measurement,setting,value
Myristyl-TGIRDRKKKNKARS-OH (SMILES CCCCCCCCCCCCCCN[C@H](C(=O)NCC(=O)N[C@H](C(=O)N[C@@H](CCCNC(=N)N)C(=O)N[C@@H](CC(=O)O)C(=O)N[C@@H](CCCNC(=N)N)C(=O)N[C@@H](CCCCN)C(=O)N[C@@H](CCCCN)C(=O)N[C@@H](CCCCN)C(=O)N[C@@H](CC(N)=O)C(=O)N[C@@H](CCCCN)C(=O)N[C@@H](C)C(=O)N[C@@H](CCCNC(=N)N)C(=O)N[C@@H](CO)C(=O)O)[C@@H](C)CC)[C@@H](C)O) [P604],PCC(r) of LSD1 and ACE2 (co-localisation),[1],significantly abrogated
same,ACE2 expression on the cell surface,[1]; 25 mM/50 mM,de-stabilizes ACE2 expression on the cell surface
same,cell surface LSD1 expression,[1]; 25 mM/50 mM,reducing cell surface LSD1 expression
same,expression of Spike protein of SARS-CoV-2,[2],significantly inhibit and downregulate
same,expression of host ACE2,[2],significantly inhibit and downregulate
same,expression of nucleocapsid protein of SARS-CoV-2,[2],significantly inhibit and downregulate
same,inhibition of the ACE2-importin complex in vitro,[3],directly inhibiting the ACE2-importin complex
same,ACE2unmod-IMP1 interaction (DUOLINK),[4],significantly all but abrogated
same,viral RNA in the lungs,[5],Significant reductions
same,decrease in viral load normalized to the vehicle group,"[5]; ip, 100 mg/kg",96%
same,decrease in viral load normalized to the vehicle group,"[5]; iv, 15 mg/kg",88%
same,lung infectious titers (TCID50 assay),[6],reduced
same,overall intensity of Spike protein signal in positive cells,[7],significantly reduced
same,population of cells in bronchial lung sections positive for SARS-CoV-2 spike protein,[7],significantly reduced
same,changes in the bronchioles or vessels (H&E),[8],minimal changes
same,mean cumulative histopathological scores,[8],substantially lower than the vehicle group
same,CD3+ cells expressing perforin in lung,[9],induce more CD3+ cells to express perforin
same,cells positive for perforin in lung,[9],significantly induce higher cells positive for perforin
same,toxicity in animal safety studies,[10],minimal toxicity
NNCCc1ccccc1 [phenelzine],effect on ACE2 transcription,[11],minimal effect
same,expression and co-localization of LSD1 with ACE2 and TMRPSS2,[11],abrogated
QAKTFLD{Lys(Me2)}FNHEAED (QAKTFLD[Lys(Me2)]FNHEAED) [ACE2me2],de-methylation at lysine 31 by LSD1,[12],efficiently de-methylated
STIEEQAKTFLDK [ACE2-02],decrease of viral RNA in infected cells,[13],2 fold
same,reduction of infection (qRT-PCR) in cell culture supernatants,[13],4.6 fold
same,"reduction in viral load (infectious viral titers, TCID50)",[14],3.2 fold
same,interaction between ACE2 and spike protein (ACE2/spike complexes at the cell surface),[15],further disrupted
same,inhibition of Spike protein binding to the cell surface,[16],significantly inhibit
